Laboratory results: patent publication US20080299140A1, “Immunogenic Composition and Peptide Sequences for Prevention and Treatment of an Hsv Condition” (priority 2002, published 2008)
Positions count from the first letter of the chain named. Read-outs that look alike come from different tables or passages of the source.

Columns and labels:
[1] = target: T1, DR1=HLA-DR(α1*0101,α1*0101) (Homo sapiens, UniProt P01903+P01911, A100R/D57E/F55L/F60I/F76Y/I96L/L162R/M171V/P40L/Q125E/R42F/V115G/Y59C); assay: biochemical; assay type: binding; conditions: […]
T1 construct: endogenous in cells; host or cells: EBV homozygous human B cell line

[2] = target: T2, DR11=HLA-DR(α1*0101,α1*1101) (Homo sapiens, UniProt P01903+P01911, A100R/A169T/A87E/I96F/K41T/L162R/M171V/P40S/Q125H/Q178H/Q39Y/Q99D/R42S/S66Y/T262R/V115G/W38E); assay: biochemical; assay type: binding
T2 construct: endogenous in cells; host or cells: SWEIG (EBV homozygous B cell line)

[3] = target: T3, DR13=HLA-DR(α1*0101,α1*1301) (Homo sapiens, UniProt P01903+P01911, A100E/A169T/K41T/L162R/M171V/P40S/Q125H/Q178H/Q39Y/Q99D/R42S/S66N/T262R/W38E/Y61H); assay: HLA-DR specific binding assay, DR13
T3 construct: endogenous in cells; host or cells: 0206AD (EBV homozygous B cell line)

[4] = target: T4, DR15=HLA-DR(α1*0101,α1*1501) (Homo sapiens, UniProt P01903+P01911); assay: HLA-DR specific binding assay, DR15
T4 construct: endogenous in cells; host or cells: EBV homozygous human B cell line

[5] = target: T5, DRB5=HLA-DR(α1*0101,α5*0101) (Homo sapiens, UniProt P01903+Q30154); assay: biochemical; assay type: binding
T5 construct: endogenous in cells; host or cells: EBV homozygous human B cell line

[6] = target: T6, DP401=HLA-DP(α1*0101,α1*0401) (Homo sapiens, UniProt P04440+P20036); assay: biochemical; assay type: binding
T6 sequence (P20036 32-260 limits assumed): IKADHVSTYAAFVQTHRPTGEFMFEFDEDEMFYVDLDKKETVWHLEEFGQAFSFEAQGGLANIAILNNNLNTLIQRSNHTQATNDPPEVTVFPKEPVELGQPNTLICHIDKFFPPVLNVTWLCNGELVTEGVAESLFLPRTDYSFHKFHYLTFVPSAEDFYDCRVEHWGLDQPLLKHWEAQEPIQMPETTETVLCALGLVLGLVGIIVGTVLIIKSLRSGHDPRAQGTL
T6 sequence (P04440 30-258): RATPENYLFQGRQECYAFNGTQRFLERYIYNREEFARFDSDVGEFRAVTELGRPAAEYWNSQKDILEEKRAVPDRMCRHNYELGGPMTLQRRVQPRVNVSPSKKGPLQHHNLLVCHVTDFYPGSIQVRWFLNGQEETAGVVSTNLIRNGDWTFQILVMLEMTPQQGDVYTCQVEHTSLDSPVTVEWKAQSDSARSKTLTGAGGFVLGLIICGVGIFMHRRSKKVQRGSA

[7] = target: T7, DP402 DP (α1*0101, α1*0402) (Homo sapiens, UniProt P04440+P20036, A65V/A84D/A85E/L207M); assay: biochemical; assay type: binding
T7 sequence (P20036 29-260): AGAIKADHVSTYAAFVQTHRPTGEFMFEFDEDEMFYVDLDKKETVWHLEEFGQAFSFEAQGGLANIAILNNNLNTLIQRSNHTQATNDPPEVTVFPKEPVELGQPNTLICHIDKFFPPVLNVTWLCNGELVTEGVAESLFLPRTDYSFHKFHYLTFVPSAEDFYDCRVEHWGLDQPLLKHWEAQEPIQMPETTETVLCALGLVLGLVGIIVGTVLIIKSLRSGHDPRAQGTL
T7 sequence (P04440 30-258 A65V/A84D/A85E): T6 sequence (P04440 30-258) with A36V, A55D, A56E

[8] = system: lymphocytes obtained from HSV-1 infected H-2^d mice; assay: HSV-primed T-cell responses to gD peptides in HSV-1 infected mice; assay type: cell-based; conditions: for T-cell responses recalled in HSV infected mice: HSV infected H-2^d mice (FIG. 6); for immunodominance of epitopes in HSV-primed T-cell responses: HSV-1 infected H-2^d mice
Description: Twelve days after the second immunization, spleen and inguinal lymph nodes (LN) were removed and placed into ice-cold serum free HL-1 medium supplemented with 15 mM HEPES, 5×10^−5 M β-mercaptoethanol, 2 mM glutamine, 50 U of penicillin and 50 μg of streptomycin (GIBCO-BRL, Grand Island, N.Y.) (complete medium, CM). The cells were cultured in 96-well plates at 5×10^5 cells/well in CM, with recall or control peptide at 30, 10, 3, 1, or 0.3 μg/ml concentration, as previously described in (BenMohamed et al., 2000 and 2002). The cell suspensions were incubated for 72 h at 37° C. in 5% CO2. One μCi (micro-curie) of (^3H)-thymidine (Dupont MEN, Boston, Mass.) was added to each well during the last 16 h of culture. The incorporated radioactivity was determined by harvesting cells onto glass fiber filters and counted on a Matrix 96 direct ionization-counter (Packard Instruments, Meriden, Conn.). Results were expressed as the mean cpm of cell-associated (^3H)-thymidine recovered from wells containing Ag minus the mean cpm of cell-associated (^3H)-thymidine recovered from wells without Ag (A cpm) (average of triplicate). The Stimulation Index (SI) was calculated as the mean cpm of cell-associated (^3H)-thymidine recovered from wells containing Ag divided by the mean cpm of cell-associated (^3H)-thymidine recovered from wells without Ag (average of triplicate). For all experiments the irrelevant control peptide gB141-165 and the T-cell mitogen Concanavalin A (ConA) (Sigma, St. Louis, Mo.) were used as negative and positive controls, respectively. Proliferation results were confirmed by repeating each experiment twice. A T-cell proliferative response was considered positive when A cpm>1000 and SI>2.
To define the fine specificity of broadly reactive T-cells associated with viral immunity and to explore immunodominance in the context of HSV infection, proliferation of lymphocytes obtained from twenty HSV-1 infected H-2^d mice were evaluated using the twelve gD peptides as Ag (FIG. 6). […] Despite a difference between individual mice, a unique array of T-cell responses was identified for each of the twenty infected mice analyzed.

[9] = Class II MHC allele DR1, read-out: IC50, DR1
[10] = read-out: IC50, DR13, Class II MHC allele DR13
[11] = Table V, […], read-out: IC50 DRB5
[12] = Class II MHC allele DR11, read-out: IC50, DR11
[13] = Table V, […], read-out: IC50 DR11

T5 sequence (Q30154 30-266, other chains not shown): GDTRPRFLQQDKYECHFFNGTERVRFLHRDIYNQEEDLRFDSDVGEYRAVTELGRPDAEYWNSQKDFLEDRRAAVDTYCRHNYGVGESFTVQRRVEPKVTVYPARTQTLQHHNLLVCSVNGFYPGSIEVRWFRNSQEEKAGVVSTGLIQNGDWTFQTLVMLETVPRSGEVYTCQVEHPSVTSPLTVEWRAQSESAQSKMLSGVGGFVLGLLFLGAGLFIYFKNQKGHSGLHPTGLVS

For `CC[C@H](C)[C@H](NC(=O)[C@H](CO)NC(=O)[C@@H]1CCCN1C(=O)[C@@H](NC(=O)[C@H](Cc1c[nH]cn1)NC(=O)[C@H](Cc1c[nH]c2ccccc12)NC(=O)[C@H](CC(N)=O)NC(=O)[C@@H]1CCCN1C(=O)[C@@H]1CCCN1C(=O)[C@@H](NC(=O)[C@H](CCC(N)=O)NC(=O)[C@@H]1CCCN1C(=O)[C@H](C)N)[C@@H](C)CC)[C@@H](C)CC)C(=O)N[C@@H](CCC(N)=O)C(=O)N[C@@H](CC(=O)O)C(=O)N[C@@H](C)C(=O)N[C@@H](C)C(=O)N[C@H](C(=O)N1CCC[C@H]1C(=O)N[C@@H](Cc1ccc(O)cc1)C(=O)N[C@@H](Cc1c[nH]cn1)C(=O)N1CCC[C@H]1C(=O)N1CCC[C@H]1C(=O)N[C@@H](C)C(=O)N[C@H](C(=O)N1CCC[C@H]1C(=O)N[C@@H](CC(N)=O)C(=O)N[C@@H](CC(N)=O)C(=O)N[C@@H](CCSC)C(=O)NCC(=O)N[C@@H](CC(C)C)C(=O)O)[C@@H](C)O)[C@@H](C)O` [HSV 35], the IC50 ([1]; Table V, read-out: IC50 DR1) was 3160 nM, the IC50 [1, 9] was 3160 nM and the IC50 ([2]; IC50, DR11) was 25000 nM. For the same compound, the IC50 ([2]; IC50 DR11) was 25000 nM, the IC50 [3] was greater than 100 µM and the IC50 [3, 10] was greater than 100 µM. For the same compound, the IC50 [4] was 6790 nM, the IC50 [5, 11] was 4500 nM and the IC50 ([6]; Class II MHC allele DP401) was greater than 100000 nM. It also gave an IC50 ([6]; Table V, […]) greater than 100000 nM, an IC50 ([7]; Class II MHC allele DP402) greater than 100000 nM and an IC50 ([7]; Table V, […]) greater than 100000 nM. The “T-cell responses recalled in HSV infected mice” value [8] was “either low or no response” and the “immunodominance of epitopes in HSV-primed T-cell responses” value (“immunodominance of epitopes” for short) [8] was “immunodominant epitopes”.

`CC[C@H](C)[C@H](NC(=O)[C@H](CO)NC(=O)[C@H](CC(=O)O)NC(=O)[C@@H](NC(=O)[C@@H](NC(=O)[C@@H](NC(=O)CNC(=O)[C@H](CCC(N)=O)NC(=O)[C@H](CCC(N)=O)NC(=O)[C@H](Cc1ccc(O)cc1)NC(=O)[C@H](C)NC(=O)[C@H](CCC(N)=O)NC(=O)[C@@H]1CCCN1C(=O)[C@H](CO)NC(=O)[C@H](CC(C)C)NC(=O)[C@H](CS)NC(=O)[C@H](C)NC(=O)[C@@H](N)CO)C(C)C)[C@@H](C)O)C(C)C)C(=O)NCC(=O)N[C@@H](CCSC)C(=O)N[C@@H](CC(C)C)C(=O)N1CCC[C@H]1C(=O)N[C@@H](CCCNC(=N)N)C(=O)N[C@@H](Cc1ccccc1)C(=O)N[C@H](C(=O)N1CCC[C@H]1C(=O)N[C@@H](CCC(=O)O)C(=O)N[C@@H](CC(N)=O)C(=O)N[C@@H](CCC(N)=O)C(=O)N[C@@H](CCCNC(=N)N)C(=O)N[C@H](C(=O)N[C@H](C(=O)N[C@@H](C)C(=O)N[C@H](C(=O)N[C@@H](Cc1ccc(O)cc1)C(=O)O)C(C)C)C(C)C)[C@@H](C)O)[C@@H](C)CC` [HSV 37] showed an IC50 ([1]; Table V, read-out: IC50 DR1) of 4 nM, an IC50 [1, 9] of 4 nM and an IC50 [2, 12] of 44 nM. The IC50 [2, 13] was 44 nM, the IC50 [3] was 2.05 µM and the IC50 [4] was 13 nM. It also gave an IC50 [5, 11] of 68 nM, an IC50 ([7]; Class II MHC allele DP402) of 167 nM and an IC50 ([7]; Table V, […]) of 167 nM. The “T-cell responses recalled in HSV infected mice” value [8] was “either low or no response”.

For `CC[C@H](C)[C@H](NC(=O)[C@@H]1CCCN1C(=O)[C@H](CS)NC(=O)[C@H](C)NC(=O)CNC(=O)[C@H](CC(C)C)NC(=O)[C@H](CO)NC(=O)[C@H](CCCCN)NC(=O)[C@@H](N)CC(N)=O)C(=O)N[C@@H](CCCNC(=N)N)C(=O)N[C@H](C(=O)N[C@@H](CCC(N)=O)C(=O)N1CCC[C@H]1C(=O)N[C@@H](CCCNC(=N)N)C(=O)N[C@@H](Cc1c[nH]c2ccccc12)C(=O)N[C@@H](CC(N)=O)C(=O)N[C@@H](Cc1ccc(O)cc1)C(=O)N[C@@H](Cc1ccc(O)cc1)C(=O)N[C@@H](CC(=O)O)C(=O)N[C@@H](CO)C(=O)N[C@@H](Cc1ccccc1)C(=O)N[C@@H](CO)C(=O)N[C@@H](C)C(=O)N[C@H](C(=O)N[C@@H](CO)C(=O)N[C@@H](CCC(=O)O)C(=O)N[C@@H](CC(=O)O)C(=O)N[C@@H](CC(N)=O)C(=O)N[C@@H](CC(C)C)C(=O)NCC(=O)N[C@@H](Cc1ccccc1)C(=O)N[C@@H](CC(C)C)C(=O)O)C(C)C)[C@@H](C)O` [HSV 33], the IC50 ([1]; Table V, read-out: IC50 DR1) was 53 nM, the IC50 [1, 9] was 53 nM and the IC50 [2, 12] was 289 nM. For the same compound, the IC50 [2, 13] was 289 nM, the IC50 [3] was 0.16 µM and the IC50 [4] was 2 nM. It also gave an IC50 [5, 11] of 134 nM, an IC50 ([6]; Class II MHC allele DP401) of 83 nM and an IC50 ([6]; Table V, […]) of 83 nM. For the same compound, the IC50 ([7]; Class II MHC allele DP402) was 65 nM, the IC50 ([7]; Table V, […]) was 65 nM and the “immunodominance of epitopes” value [8] was “subdominant epitopes”.

With `CC[C@H](C)[C@H](NC(=O)[C@H](CCC(N)=O)NC(=O)[C@@H]1CCCN1C(=O)[C@H](C)NC(=O)[C@H](CCC(=O)O)NC(=O)[C@H](CO)NC(=O)[C@@H]1CCCN1C(=O)[C@H](C)NC(=O)[C@H](CC(N)=O)NC(=O)[C@H](CC(C)C)NC(=O)[C@H](CC(C)C)NC(=O)[C@@H](NC(=O)[C@H](CO)NC(=O)[C@H](CCCNC(=N)N)NC(=O)[C@H](CS)NC(=O)[C@H](C)NC(=O)[C@H](CCCNC(=N)N)NC(=O)[C@H](CCC(=O)O)NC(=O)[C@H](CC(C)C)NC(=O)[C@@H](NC(=O)[C@H](C)NC(=O)[C@H](Cc1ccc(O)cc1)NC(=O)[C@H](Cc1ccc(O)cc1)NC(=O)[C@@H](NC(=O)[C@@H](NC(=O)[C@@H](NC(=O)[C@@H]1CCCN1C(=O)[C@H](CC(C)C)NC(=O)[C@H](CO)NC(=O)[C@@H]1CCCN1C(=O)[C@@H]1CCCN1C(=O)[C@@H](N)CCC(N)=O)[C@@H](C)CC)[C@@H](C)O)C(C)C)C(C)C)C(C)C)C(=O)N[C@H](C(=O)N[C@@H](CCCNC(=N)N)C(=O)O)C(C)C` [HSV 36] the IC50 ([1]; Table V, read-out: IC50 DR1) was 3 nM, the IC50 [1, 9] was 3 nM and the IC50 ([2]; IC50, DR11) was 120 nM. The IC50 ([2]; IC50 DR11) was 120 nM, the IC50 [3] was greater than 100 µM and the IC50 [3, 10] was greater than 100 µM. The IC50 [4] was 18 nM, the IC50 [5] was 66 nM and the IC50 ([6]; Class II MHC allele DP401) was 615 nM. The IC50 ([6]; Table V, […]) was 615 nM, the IC50 ([7]; Class II MHC allele DP402) was 98 nM and the IC50 ([7]; Table V, […]) was 98 nM. The “immunodominance of epitopes” value [8] was “immunodominant epitopes”.
